Laboratory results published in patent US20140186329A1, “POLYPHENOL ANALOGS TO TREAT ISCHEMIA” (priority 2011, published 2014).
Like-named read-outs stand apart in the source and are kept apart here.

What was measured:
[1] = tested on: PC12 cells; experiment: PC12 cell differentiation (neurite outgrowth); format: cell-based; conditions: N2 medium, derivative 1-10 μM, 24 hr, visual inspection
Protocol: PC 12 cells in N2 medium were treated with the derivatives (1-10 μM) or Fisetin (10 μM) as a positive control for 24 hr at which time the cells were scored for the presence of neurites. PC12 cells produce neurites much more rapidly when treated in N2 medium than when treated in regular growth medium. For each treatment, 100 cells in each of three separate fields were counted. Cells were scored positive if one or more neurites>1 cell body diameter in length were observed.
(§1) Three secondary screens allowed assessment of three key activities of Fisetin that are highly relevant to stroke, as well as other neurological disorders: maintenance of glutathione (GSH), the major endogenous cellular antioxidant, inhibition of LPS-induced microglial activation, an indicator of anti-inflammatory activity and PC 12 cell differentiation, a measure of neurotrophic activity. All of these activities are relevant to the nerve cell loss seen in stroke (Gelderblom, et al., Stroke. 2009, 40 (5), 1849-1857; Pandya, et al., Cent. Nerv. Syst. Agents. Med. Chem. (2011) April 27; Lewerenz, et al., J. Neurochem. (2010) 113 (2), 502-504). […] To assess GSH maintenance, total intracellular GSH levels after a 24 hr treatment with the compound both in the absence and presence of glutamate, an inducer of GSH loss and oxidative stress (Tan, et al., Curr. Top. Med. Chem. (2001) 1, 497-506; Maher, et al., Free Radical Research. (2006) 40 (10), 1105-1111) was measured. Inhibition of LPS-induced microglial activation was determined by treating N9 mouse microglial cells with LPS alone and in the presence of the compounds and assaying NO release into the medium 24 hr later (Zheng, et al., Int. Immunopharmacol. (2008) 8, (3), 484-494). PC12 cell differentiation was determined by treating PC12 cells with the compounds and looking at neurite outgrowth after 24 hr. In all cases, Fisetin was used as a positive control (Sagara, et al., J. Neurochem. (2004) 90, 1144-1155).
(§2) Cell viability was determined after 24 hr by the MTT assay. The ability to maintain GSH (GSH) was determined by treating HT22 cells with different doses of each derivative (1-10 μM) in the presence of 5 mM glutamate. After 24 hr cell extracts were prepared and analyzed for total GSH. Fisetin (10 μM) was used as a positive control. The ability to induce PC12 cell differentiation (PC 12 diff' n) was determined by treating PC12 cells in N2 medium with different doses of each derivative (1-10 μM) for 24 hr. Differentiation was assessed by visual inspection with Fisetin (10 μM) as a positive control. Anti-inflammatory activity (microglia) was assessed in N9 microglial cells treated with bacterial lipopolysaccharide alone or in the presence different doses of each derivative (1-10 μM) for 24 hr. Fisetin was used as a positive control. TEAC values, a measure of direct antioxidant activity, were determined using the ABTS decolorization assay.

[2] = tested on: HT22 cells; experiment: In vitro ischemia assay (HT22 cell IAA assay, MTT); format: cell-based, mouse
Protocol: Cell viability was determined by a modified version of 3-(4,5-dimethylthiazol-2-yl)-2,5-diphenyl tetrazolium bromide (MTT) assay based on the standard procedure (Maher, et al., Brain Research. (2007), supra). Cells were seeded onto 96-well microtiter plates at a density of 5×10^3 cells per well. For the in vitro ischemia assay, the next day, the medium was replaced with DMEM supplemented with 7.5% DFCS and the cells were treated with 20 μM iodoacetic acid (IAA) alone or in the presence of the different derivatives. After 2 hr the medium in each well was aspirated and replaced with fresh medium without IAA but containing the derivatives. 20 hr later, the medium in each well was aspirated and replaced with fresh medium containing 2.5 μg/ml MTT. After 4 hr of incubation at 37° C., the cells were solubilized with 100 μl of a solution containing 50% dimethylformamide and 20% SDS (pH 4.7). The absorbance at 570 nm was measured on the following day with a microplate reader (Molecular Devices). Results were confirmed by visual inspection of the wells. Controls included compound alone to test for toxicity and compound with no cells to test for interference with the assay chemistry.
For a primary screen, an in vitro ischemia model in combination with the HT22 nerve cell line (Maher, et al., Brain Research. (2007) 1173, 117-125) was chosen. […] To induce ischemia in the HT22 cells we used iodoacetic acid (IAA), a well-known, irreversible inhibitor of the glycolytic enzyme glyceraldehyde 3-phosphate dehydrogenase (G3PDH) (Winkler, et al., Exp. Eye Res. (2003) 76, 715-723). IAA has been used in a number of other studies to induce ischemia in nerve cells (Reshef, et al., Neurosci. Lett. (1997) 238, 37-40; Sperling, et al., Neursci. Lett. (2003) 351, 137-140; Rego, et al., Neurochem. Res. (1999) 24, 351-358; Sigalov, et al., J. Mol. Neurosci. (2000) 15, 147-154; and Reiner, et al., Neurosci. Lett. (1990) 119, 175-178), including several recent screens for neuroprotective molecules (Biraboneye, et al., J. Med. Chem. (2009) 52 (14), 4358-4369; Biraboneye, et al., Chem. Med. Chem. (2010) 5 (1), 79-85). The changes following IAA treatment of neural cells are very similar to those seen in animal models of ischemic stroke (Lipton, et al., Physiol. Rev. (1999) 79, 1431-1568) and include alterations in membrane potential (Reiner, et al., Neurosci. Lett. (1990) 119, 175-178), breakdown of phospholipids (Taylor, et al., J. Pharmacol. Exp. Ther. (1996) 276, 1224-1231), loss of ATP (Winkler, et al., Exp. Eye Res. (2003) 76, 715-723; Sperling, et al., Neursci. Lett. (2003) 351, 137-140) and an increase in reactive oxygen species (ROS) (Taylor, et al., J. Pharmacol. Exp. Ther. (1996), supra; and Sperling, et al., Neursci. Lett. (2003) 351, 137-140).
as §2
For rapid screening of chemical libraries, a mouse HT22 hippocampal cell death assay induced by addition of the compound iodoacetic acid (IAA) was used. IAA is a well-known, irreversible inhibitor of the glycolytic enzyme glyceraldehyde 3-phosphate dehydrogenase (G3PDH). […]

[3] = TEAC, ABTS decolorization assay; conditions: relative to Trolox
Protocol: TEAC values for the flavonoids were determined as described (Maher, P. et al., Free Radical Research. (2006), supra). Briefly, 250 μl of 2,2′-azinobis(3-ethylbenzothiazoline 6-sulfonate) (ABTS) treated overnight with potassium persulfate and diluted to an OD of ˜0.7 at 734 nm was added to 2.5 μl of a derivative solution in ethanol. The change in absorbance due to the reduction of the ABTS radical cation was measured at 734 nm for 4 min. To calculate the TEAC, the gradient of the plot of the percentage inhibition of absorbance vs. concentration for the derivative in question was divided by the gradient of the plot for Trolox.
as §2

[4] = tested on: HT22 cells; experiment: Maintenance of total GSH in the presence of glutamate; format: cell-based, mouse; conditions: derivative 1-10 μM, 5 mM glutamate, 24 hr
Protocol: Total intracellular glutathione was determined by a chemical assay as described (Maher, P. et al., Free Radical Research. (2006) 40 (10), 1105-1111).
as §1, §2

[5] = Mus musculus, HT-22, HT22 cells, 20 μM IAA for 2 hr, viability after 24 hr by MTT, read-out: EC50 in vitro ischemia
[6] = Mus musculus, HT-22, HT22 cells, 20 μM IAA, read-out: HT22 Cell IAA assay EC50

Row | Structure (SMILES) | PC12 diff'n (ability to induce PC12 cell differentiation) [1] | EC50 [2, 5] | Emax ([2]; Mus musculus, HT-22, HT22 Cell IAA assay, read-out: Max Protection) | TEAC [3] | GSH (ability to maintain GSH) [4] | EC50 ([2]; HT22 cells, 20 μM IAA, read-out: HT22 Cell IAA assay EC50) | EC50 [2, 6] | EC50 in vitro ischemia (μM) ([2]; HT22 cells, 20 μM IAA for 2 hr, viability after 24 hr by MTT)
1 | COc1ccc(-c2oc3cc(C)c(C)cc3c(=O)c2O)cc1O [CMS-092, 3-hydroxy-2-(3-hydroxy-4-methoxyphenyl)-6,7-dimethyl-4H-chromen-4-one] | no | 20 nM | 90% | 1.74 | no | – | – | –
2 | COc1cc(-c2ccc(N(C)C)cc2)nc2ccccc12 [CMS-109, 4-methoxy-2-(4-dimethylaminophenyl)quinoline] | no | 60 nM | – | 0.06 | no | – | – | –
3 | COc1ccc(/C=C/C(=O)c2cc(C)c(C)cc2O)cc1O [CMS-088, (E)-1-(2-hydroxy-4,5-dimethylphenyl)-3-(3-hydroxy-4-methoxyphenyl)prop-2-en-1-one] | no | 200 nM | – | 0.12 | no | – | – | –
4 | Cc1cc2oc(-c3ccc(O)c(O)c3)c(O)c(=O)c2cc1C [CMS-027, 2-(3,4-dihydroxyphenyl)-3-hydroxy-6,7-dimethyl-4H-chromen-4-one] | no | 500 nM | – | 1.89 | no | – | – | –
5 | CC(C)Oc1cc(-c2ccc(N(C)C)cc2)nc2ccccc12 [CMS-112, 4-isopropoxy-2-(4-dimethylaminophenyl)quinoline] | no | 50 nM | – | 0.15 | no | – | – | –
6 | Cc1cc2oc(-c3ccc(N(C)C)cc3)cc(=O)c2cc1C [CMS-119, 2-(4-(dimethylamino)phenyl)-6,7-dimethyl-4H-chromen-4-one] | no | > 500 nM | – | 0 | no | – | – | –
7 | COc1cc(-c2cc(=O)c3cc(C)c(C)cc3o2)ccc1O [CMS-064, 2-(4-hydroxy-3-methoxyphenyl)-6,7-dimethyl-4H-chromen-4-one] | no | 30 nM | – | 0.12 | no | 34 nM | < 40 nM | –
8 | CC(C)Oc1cc(-c2ccc(O)cc2O)nc2ccccc12 [CMS-084, 4-isopropoxy-2-(2,4-dihydroxyphenyl) quinoline] | no | 210 nM | – | 0.27 | no | – | 210 nM | –
9 | COc1cc(-c2cc(OC)c3ccccc3n2)ccc1O [CMS-017, 4-methoxy-2-(4-hydroxy, 3-methoxyphenyl) quinoline] | no | 500 nM | – | 0.15 | no | – | – | –
10 | CCOc1ccc(/C=C/C(=O)c2ccc3ccccc3c2O)cc1OCC [CMS-032, (E)-3-(3,4-diethoxyphenyl)-1-(1-hydroxynaphthalen-2-yl)prop-2-en-1-one] | no | – | – | 0.12 | no | – | – | no
11 | CCOc1ccc(-c2oc3cc(C)c(C)cc3c(=O)c2O)cc1OCC [CMS-025, 2-(3,4-diethoxyphenyl)-3-hydroxy-6,7-dimethyl-4H-chromen-4-one] | no | 500 nM | – | 0.84 | no | – | – | –
12 | CCOc1ccc(-c2oc3c(ccc4ccccc43)c(=O)c2O)cc1OCC [CMS-036, 2-(3,4-diethoxyphenyl)-3-hydroxy-4H-benzo[h]chromen-4-one] | no | 300 nM | – | 0.15 | no | – | – | –
